Laboratory results taken from patent publication US6114369A, “Benzimidazole compound” (Nissan Chemical Industries, Ltd., priority 1997, dated 2000).
Counter-ions that a name gives are not always drawn.

Experiments:
[1] = test system: substance P-induced contraction of the isolated guinea-pig ileum; assay: Inhibitory effect on substance P-induced contraction of the isolated guinea-pig ileum; assay type: cell-based; details: Cavia porcellus, 5 min, substance P 0.01 μM, 5 min incubation, 30° C.
Experimental: (§1) Inhibitory effect on substance P and histamine-induced contraction of the isolated guinea-pig ileum. Test compounds were dissolved and diluted in 100% dimethylsulfoxide (DMSO). Substance P (SP, Peninsula Laboratories or Peptide Institute) and histamine dihydrochloride (Wako Pure Chemicals) were dissolved and diluted in distilled water. […] Male Hartley guinea-pigs (300-400 g) were killed by a blow to the head. The ileum was removed and the ileal strips (15-20 mm) were suspended under 0.5 g tension in a 20 ml organ bath containing a modified Tyrode solution maintained at 30° C. and aerated with 95% O2 +5% CO2. Responses were recorded isotonically. Tissues were equilibrated for 15 min, and then the constant responses to histamine (1 μM) were obtained. Then substance P (0.01 μM) or histamine (0.1 μM)-induced contraction was obtained after 5 min incubation with or without the test compounds. Contractile responses to substance P or histamine with the test compound were expressed as a percentage of those without the test compound. IC50 was the concentration of the test compound required to prevent 50% of the contractile response elicited by substance P or histamine. Compound Nos. of the tested compounds correspond to the numbers of Preparation Examples.

[2] = test system: histamine-induced contraction of the isolated guinea-pig ileum; assay: Inhibitory effect on histamine-induced contraction of the isolated guinea-pig ileum; assay type: cell-based; details: Cavia porcellus, 5 min, histamine 0.1 μM, 5 min incubation, 30° C.
Experimental: as §1

## CN(CCCN(C)c1nc2ccccc2n1Cc1ccc(F)cc1)C(=O)NCc1cc(C(F)(F)F)cc(C(F)(F)F)c1 [Compound 1, N-methyl-N-(1-(4-fluorobenzyl)benzimidazol-2-yl)-N'-methyl-N'-(3,5-bis(trifluoromethyl)benzylaminocarbonyl)-1,3-propylenediamine hydrochloride]
[1]
  IC50: 590 nM
[2]
  IC50: 290 nM

## CN(CCN(C)c1nc2ccccc2n1Cc1ccc(F)cc1)C(=O)NCc1cc(C(F)(F)F)cc(C(F)(F)F)c1 [Compound 2, N-methyl-N-(1-(4-fluorobenzyl)benzimidazol-2-yl)-N'-methyl-N'-(3,5-bis(trifluoromethyl)benzylaminocarbonyl)-1,2-ethylenediamine hydrochloride]
[1]
  IC50: 2800 nM
[2]
  IC50: 1100 nM

## CN(CCCN(C)C(=O)NCc1cc(C(F)(F)F)cc(C(F)(F)F)c1)Cc1nc2ccccc2n1Cc1ccc(F)cc1 [Compound 3, N-methyl-N-(1-(4-fluorobenzyl)benzimidazol-2-yl)methyl-N'-methyl-N'-(3,5-bis(trifluoromethyl)benzylaminocarbonyl)-1,3-propylenediamine hydrochloride]
[1]
  IC50: 1400 nM
[2]
  IC50: 160 nM

## CN(CCN(C)C(=O)NCc1cc(C(F)(F)F)cc(C(F)(F)F)c1)Cc1nc2ccccc2n1Cc1ccc(F)cc1 [Compound 4, N-methyl-N-(1-(4-fluorobenzyl)benzimidazol-2-yl)methyl-N'-methyl-N'-(3,5-bis(trifluoromethyl)benzylaminocarbonyl)-1,2-ethylenediamine hydrochloride]
[1]
  IC50: 950 nM
[2]
  IC50: 100 nM

## COc1ccccc1CNC(=O)N(C)CCCN(C)c1nc2ccccc2n1Cc1ccc(F)cc1 [Compound 5]
[1]
  IC50: 3000 nM
[2]
  IC50: 29 nM

## CN(CCCN(C)c1nc2ccccc2n1Cc1ccc(F)cc1)C(=O)NCc1ccccc1Cl [Compound 6]
[1]
  IC50: 2700 nM
[2]
  IC50: 25 nM

## COc1cc(CNC(=O)N(C)CCCN(C)c2nc3ccccc3n2Cc2ccc(F)cc2)cc(OC)c1OC [Compound 7]
[1]
  IC50: 4000 nM
[2]
  IC50: 100 nM

## COc1cc(CNC(=O)N(C)CCCN(C)c2nc3ccccc3n2Cc2ccc(F)cc2)cc(OC)c1 [Compound 8]
[1]
  IC50: 3000 nM
[2]
  IC50: 280 nM

## CN(CCCN(C)c1nc2ccccc2n1Cc1ccc(F)cc1)C(=O)NCc1ccc(F)cc1 [Compound 9]
[1]
  IC50: 2700 nM
[2]
  IC50: 36 nM

## COc1cccc(CNC(=O)N(C)CCCN(C)c2nc3ccccc3n2Cc2ccc(F)cc2)c1 [Compound 10]
[1]
  IC50: 2800 nM
[2]
  IC50: 41 nM

## CN(CCCN(C)c1nc2ccccc2n1Cc1ccc(F)cc1)C(=O)NCc1cc(Cl)cc(Cl)c1 [Compound 11]
[1]
  IC50: 1500 nM
[2]
  IC50: 200 nM

## COc1ccc(CNC(=O)N(C)CCCN(C)c2nc3ccccc3n2Cc2ccc(F)cc2)cc1 [Compound 12]
[1]
  IC50: 4100 nM
[2]
  IC50: 44 nM

## Cc1ccc(CNC(=O)N(C)CCCN(C)c2nc3ccccc3n2Cc2ccc(F)cc2)cc1 [Compound 13]
[1]
  IC50: 2800 nM
[2]
  IC50: 28 nM
